Reference: US5656736A, “Compound UCH9” (Kyowa Hakko Kogyo Co., Ltd., priority 1993, dated 1997)
≈ marks a conversion by molar mass, not a printed value. Counter-ions that a name gives are not always drawn.

Tests used:
[1] = test system: Bacillus subtilis No. 10707; assay: Antibacterial activity, agar dilution method (MIC); format: cell-based; details: pH 7
Experimental: (§1) The minimum inhibitory concentration (MIC) of the compound obtained in Example 1 against the growth of various bacteria is shown in Table 1.
(§2) The antibacterial activity was determined by the agar dilution method using a medium (pH 7) which comprises 3 g/l Bacto-tryptone (Difco Laboratories),3 g/l meat extract, 1 g/l yeast extract, 1 g/l glucose and 16 g/l agar.

[2] = test system: Enterococcus faecium ATCC 10541; assay: Antibacterial activity, agar dilution method (MIC); format: cell-based; details: ATCC10541, pH 7
Experimental: as §1, §2

[3] = test system: Staphylococcus aureus ATCC 6538P; assay: Antibacterial activity, agar dilution method (MIC); format: cell-based; details: ATCC6538P, pH 7
Experimental: as §1, §2

[4] = test system: HeLa S3 cells (ATCC HTB22); assay: Growth inhibition against HeLa S3 cells (Neutral Red staining); format: cell-based; details: Homo sapiens, 72 hours, 37° C.
Experimental: HeLa S3 cells (ATCC HTB22) were suspended in a medium comprising 10% fetal calf serum, 2 mM glutamine and MEM medium (Nippon Pharmaceutical Co., Ltd.) (hereinafter referred to as medium A) to a concentration of 3×10^4 cells/mi. The cell suspension was put into wells of a 96-well microtiter plate in an amount of 0.1 ml per well. The cells in the plate were cultured at 37° C. for 20 hours in a CO2 -incubator. Subsequently, the test compound obtained in Example 1 which was appropriately diluted with medium A was added to the wells in an amount of 0.1 ml/well. The cells were further cultured at 37° C. for 72 hours in the CO2 -incubator, and then the culture supernatant was removed. To the residue was added a medium comprising medium A and 0.02% Neutral Red in an amount of 0.1 ml per well, followed by culturing at 37° C. for one hour in the CO2 -incubator, whereby the cells were stained. After removal of the culture supernatant, the residue was washed once with physiological saline. The pigment was extracted with 0.001N hydrochloric acid/30% ethanol, and the absorbance at 550 nm was measured by using a microplate reader. The concentration of the test compound at which the growth of the cells is inhibited by 50% (IC50) was calculated by comparing the absorbance of untreated cells with those of the cells treated with the test compound at known concentrations.

[5] = Solubility; format: physicochemical

Row | SMILES | MIC [1] | MIC [2] | MIC [3] | IC50 [4] | Solubility ([5]; chloroform) | Solubility ([5]; dimethylsulfoxide (DMSO)) | Solubility ([5]; methanol) | Solubility ([5]; water)
1 | CCC(C)c1c(OC2CC(O)C(O)C(C)O2)cc2cc3c(c(O)c2c1O)C(=O)C(OC1CC(OC2CC(OC4CC(OC5CC(OC)C(O)C(C)O5)C(O)C(C)O4)C(O)C(C)O2)C(O)C(C)O1)C(C(OC)C(=O)C(O)C(C)O)C3 (centres unmarked) [UCH9] | 0.04 µg/mL (≈ 0.0355 µM) | 41.6 µg/mL (≈ 36.9 µM) | 5.2 µg/mL (≈ 4.61 µM) | 0.015 µg/mL (≈ 0.0133 µM) |  |  |  | 
2 | CCC(C)c1c(OC2CC(O)C(O)C(C)O2)cc2cc3c(c(O)c2c1O)C(=O)C(OC1CC(OC2CC(OC4CC(OC5CC(OC)C(O)C(C)O5)C(O)C(C)O4)C(O)C(C)O2)C(O)C(C)O1)C(C(OC)C(=O)C(O)C(C)O)C3 (centres unmarked) [UCH9·1/2 magnesium salt] |  |  |  |  | sparingly soluble | Soluble | Soluble | sparingly soluble
